Converted amounts (≈) assume the structure as drawn. Read-outs that look alike come from different tables or passages of the source.
Tests used:
Assay type in all cases: cell-based
drug-resistant bacteria = experiment: Antibacterial activity test, summary over all experimental strains; conditions: text summary of FIG. 1-2 and Table 1
Protocol: (§1) The minimal inhibitory concentration (MIC) of the compounds was determined by a microbroth dilution method with gentamicin, cefazolin sodium and ceftriaxone sodium as positive controls.
(§2) The experimental strains included methicillin-resistant Gram-positive bacteria: methicillin-resistant Staphylococcus aureus MRSA 18-222, 18-575; multiple drug-resistant Gram-negative bacteria: […], multidrug-resistant Pseudomonas aeruginosa MDR-PA 18-174,18-202, carbapenem-resistant Acinetobacter baumannii CR-AB 18-183,18-560. All the experimental strains were donated by Huashan Hospital affiliated to Fudan University (Institute of antibiotics, Fudan University) and used after routine identification.
(§3) Preparation of Test Strains:
(§4) Preparation of MHB medium: 20.0 g MHB medium was added to 1 L distilled water, boiled until completely dissolved, packed in conical bottles and sterilized at 121° C. for 15 min.
The experimental strain was cultured to the logarithmic growth phase: under aseptic condition, the experimental strain was inoculated into 100 mL MHB medium and incubated in a constant temperature and humidity incubator at 37° C. for 20-22 hours. […]

[1] = test system: carbapenem-resistant Acinetobacter baumannii CR-AB 18-560; experiment: MIC by microbroth dilution, CR-AB 18-560; conditions: for MIC: Acinetobacter baumannii, read-out: Minimum bacteriostatic concentration (MIC)
Protocol: as §1, §2, §3, §4
(§5) The experimental strain was cultured to the logarithmic growth phase: under aseptic condition, the experimental strain was inoculated into 100 mL MHB medium and incubated in a constant temperature and humidity incubator at 37° C. for 20-22 hours.
(§6) Preparation of storage solution: weigh the sample to be tested, dissolve it with 1% DMSO solution, prepare a storage solution with a concentration of 2560 μg/mL, weigh a positive reference substance, dissolve it with aseptic distilled water, and configure a storage solution with a concentration of 2560 μg/mL.
(§7) Preparation of bacterial suspension: under aseptic condition, the experimental strains cultured to logarithmic growth phase were adjusted to 0.5 MCF turbidity standard with MHB medium and diluted according to 1:10, and the bacterial suspension with concentration of 10^6 CFU/mL was prepared for standby.
(§8) Stock solution dilution and inoculation of experimental strains: under aseptic conditions, dilute the stock solution to a solution of 256 μg/mL. Take a sterile 96-well plate, add 100 μL of MHB medium to each well except for the first and second wells; add 100 μL of positive control solution to the first well, and add 100 μL of compound sample solution to the second and third wells; Mix the sample solution in the 3 wells with the medium, and then pipet 100 μL to the 4th well, and then pipet 100 μL to the 5th well after mixing, and then dilute to the 9th well in a series of times, and draw 100 μL from the 9th well and discard, the 10th well is a growth control without drugs; then, add 100 μL of the above-prepared bacterial suspension to each well to make the final bacterial concentration of each well 5×10^5 CFU/mL; so far, the positive control concentration is 128 μg/mL, the concentration of the sample solution is 128, 64, 32, 16, 8, 4, 2, 1 μg/mL.
(§9) Incubation: Cover the 96-well plate inoculated with the experimental strains, and incubate in a constant temperature and humidity box at 37° C. for 20-22 hours.

[2] = test system: multidrug-resistant Pseudomonas aeruginosa MDR-PA 18-202; experiment: MIC by microbroth dilution, MDR-PA 18-202
Protocol: as §1, §2, §3, §4, §5, §6, §7, §8, §9
(§10) In FIGS. 1-2, the ten wells represent ten groups, from left to right, positive, 128 μg/mL, 64 μg/mL, 32 μg/mL, 16 μg/mL, 8 μg/mL, 4 μg/mL, 2 μg/mL, 1 μg/mL, Negative.

[3] = test system: methicillin-resistant Staphylococcus aureus MRSA 18-575; experiment: MIC by microbroth dilution, MRSA 18-575
Protocol: as §1, §2, §3, §4, §5, §6, §7, §8, §9, §10

[4] = test system: multidrug-resistant Pseudomonas aeruginosa MDR-PA 18-174; experiment: MIC by microbroth dilution, MDR-PA 18-174; conditions: for MIC: Pseudomonas aeruginosa, read-out: Minimum bacteriostatic concentration (MIC)
Protocol: as §1, §2, §3, §4, §5, §6, §7, §8, §9

[5] = test system: carbapenem-resistant Acinetobacter baumannii CR-AB 18-183; experiment: MIC by microbroth dilution, CR-AB 18-183; conditions: for MIC: Acinetobacter baumannii, read-out: Minimum bacteriostatic concentration (MIC)
Protocol: as §1, §2, §3, §4, §5, §6, §7, §8, §9

[6] = test system: vancomycin-resistant enterococci VRE 18-94; experiment: MIC by microbroth dilution, VRE 18-94; conditions: for MIC: Enterococcus, read-out: Minimum bacteriostatic concentration (MIC)
Protocol: as §1, §2, §3, §4, §5, §6, §7, §8, §9

[7] = test system: methicillin-resistant Staphylococcus aureus MRSA 18-222; experiment: MIC by microbroth dilution, MRSA 18-222; conditions: for MIC: Staphylococcus aureus, read-out: Minimum bacteriostatic concentration (MIC)
Protocol: as §1, §2, §3, §4, §5, §6, §7, §8, §9

[8] = test system: vancomycin-resistant enterococci VRE 18-80; experiment: MIC by microbroth dilution, VRE 18-80; conditions: for MIC: Enterococcus, read-out: Minimum bacteriostatic concentration (MIC)
Protocol: as §1, §2, §3, §4, §5, §6, §7, §8, §9

[9] = strain CR-AB 18-560, 37° C., 20-22 hours
[10] = Pseudomonas aeruginosa, strain MDR-PA 18-202, 37° C., 20-22 hours, read-out: Minimum bacteriostatic concentration (MIC)
[11] = Staphylococcus aureus, strain MRSA 18-575, 37° C., 20-22 hours, read-out: Minimum bacteriostatic concentration (MIC)
[12] = strain MDR-PA 18-174, 37° C., 20-22 hours
[13] = strain CR-AB 18-183, 37° C., 20-22 hours
[14] = strain VRE 18-94, 37° C., 20-22 hours
[15] = strain MRSA 18-222, 37° C., 20-22 hours
[16] = strain VRE 18-80, 37° C., 20-22 hours

Molecule	inhibitory effect on drug-resistant bacteria (drug-resistant bacteria)	MIC [1, 9] [µg/mL]	MIC [2, 10] [µg/mL]	MIC [3, 11] [µg/mL]	MIC [4, 12] [µg/mL]	MIC [5, 13] [µg/mL]	MIC [6, 14] [µg/mL]	MIC [7, 15] [µg/mL]	MIC [8, 16] [µg/mL]	also measured
COc1cc(C)c(/C=C/C(C)=C/C=C/C(C)=C/C(=O)O)c(C)c1C [Acitretin]	no inhibitory effect									MIC [1]: > 128 µg/mL; MIC ([2]; Pseudomonas aeruginosa, read-out: Minimum bacteriostatic concentration (MIC)): > 128 µg/mL; MIC ([3]; Staphylococcus aureus, MRSA, read-out: Minimum bacteriostatic concentration (MIC)): > 128 µg/mL; MIC [4]: > 128 µg/mL; MIC [5]: > 128 µg/mL; MIC ([6]; VRE): > 128 µg/mL; MIC ([7]; MRSA): > 128 µg/mL; MIC ([8]; VRE): > 128 µg/mL
Cc1nnc(SCC2=C(C(=O)O)N3C(=O)[C@@H](NC(=O)Cn4cnnn4)[C@H]3SC2)s1 [Cefazolin sodium]		> 128	128	> 128	8	> 128	> 128	> 128	32	
CO/N=C(\C(=O)N[C@@H]1C(=O)N2C(C(=O)O)=C(CSc3nc(=O)c(=O)[nH]n3C)CS[C@H]12)c1csc(N)n1 [Ceftriaxone sodium]		> 128	16	> 128	128	> 128	> 128	> 128	8	
C=C[C@]1(C)C[C@@H](OC(=O)COC(=O)/C=C(C)/C=C/C=C(C)/C=C/c2c(C)cc(OC)c(C)c2C)[C@]2(C)CC[C@@H](C)C3(CCC(=O)[C@H]32)[C@@H](C)[C@@H]1O [Pleuromulin acitretinester, (2E,4E,6E,8E)-2-(((4R,5S,6S,8R,9R,9aR,12R)-5-hydroxy-4,6,9,12-tetramethyl-1-oxo-6-vinyldecahydro-3a,9-propanocyclopenta[8]annulen-8-yl)oxy)-2-oxoethyl 9-(4-methoxy-2,3,6-trimethylphenyl)-3,7-dimethylnona-2,4,6,8-tetraenoate]		> 128	128 (≈ 186 µM)	64 (≈ 93.2 µM)	> 128	> 128	> 128	> 128	> 128	MIC ([2]; multi-drug resistant Pseudomonas aeruginosa MDR-PA, strain not named, read-out: MIC): 128 µg/mL (≈ 186 µM); MIC ([3]; multi-drug resistant Staphylococcus aureus MRSA, strain not named, read-out: MIC): 64 µg/mL (≈ 93.2 µM)
C=C[C@]1(C)C[C@@H](OC(=O)CO)[C@]2(C)[C@H](C)CC[C@]3(CCC(=O)[C@H]32)[C@@H](C)[C@@H]1O [Pleuromulin]	no inhibitory effect	> 128	> 128	> 128	> 128	> 128	> 128	> 128	> 128	
Gentamicin										Minimum bacteriostatic concentration (MIC) [1, 9]: >128 µg/mL; Minimum bacteriostatic concentration (MIC) ([2]; strain MDR-PA 18-202, 37° C., 20-22 hours): 0.0625 µg/mL; Minimum bacteriostatic concentration (MIC) ([3]; strain MRSA 18-575, 37° C., 20-22 hours): 2 µg/mL; Minimum bacteriostatic concentration (MIC) [4, 12]: 0.0625 µg/mL; Minimum bacteriostatic concentration (MIC) [5, 13]: >128 µg/mL; Minimum bacteriostatic concentration (MIC) [6, 14]: >128 µg/mL; Minimum bacteriostatic concentration (MIC) [7, 15]: 128 µg/mL; Minimum bacteriostatic concentration (MIC) [8, 16]: 0.0625 µg/mL
